Drawing on patent US9284323B2, “Naphthalene acetic acid derivatives against HIV infection” (Gilead Sciences, Inc., priority 2012, dated 2016), this text covers EC50 for 36 compounds.

For one assay, the system named is HIV-IIIb. The experiment in a line: Test A: Antiviral Assays in MT4 Cells. It is filed as cell-based. The settings on record: Human immunodeficiency virus 1, IIIB, MT4, 120 h, Table I; MT-4 cells infected with HIV-IIIb, 5 days incubation, CellTiter-Glo readout. The procedure:
The antiviral properties of a compound disclosed herein may be determined using Test A described below.
Test A: Antiviral Assays in MT4 Cells
For the antiviral assay utilizing MT-4 cells, 0.4 μL of […] test concentration of 3-fold serially diluted compound in DMSO was added to 40 μL of cell growth medium (RPMI 1640, 10% FBS, 1% penicillin/Streptomycin, 1% L-Glutamine, 1% HEPES) in each well of 384-well assay plates (10 concentrations) in quadruplicate.
1 mL aliquots of 2×10e6 MT-4 cells are pre-infected for 1 and 3 hrs respectively, @ 37° C. with 25 μL (MT4) or of either cell growth medium (mock-infected) or a fresh 1:250 dilution of an HIV-IIIb concentrated ABI stock (0.004 m.o.i. for MT4 cells). Infected and uninfected cells are diluted in cell growth medium and 35 μL of 2000 (for MT4) cells is added to each well of the assay plates.
Assay plates were then incubated in a 37° C. incubator. After 5 days of incubation, 25 μl of 2× concentrated CellTiter-Glo™ Reagent (catalog # G7573, Promega Biosciences, Inc., Madison, Wis.) was added to each well of the assay plate. Cell lysis was carried out by incubating at room temperature for 2-3 min and then chemiluminescence was read using the Envision reader (PerkinElmer).
For `CCCC(C)(C)O[C@H](C(=O)O)c1c(C)cc2ccccc2c1-c1ccc2c3c(ccnc13)CCO2` (atropisomer, axis not shown) [Example 29, (S)-2-((R)-1-(2,3-Dihydropyrano[4,3,2-de]quinolin-7-yl)-3-methylnaphthalen-2-yl)-2-(2-methylpentan-2-yloxy)acetic acid], the EC50 came to 84 nM.
Same read-out and setting: with `Cc1cc2ccc(C#CC(C)(O)c3ccc(F)cc3)cc2c(-c2ccc(Cl)cc2)c1[C@H](OC(C)(C)C)C(=O)O` (stereo partly drawn) [Example 8, (2S)-2-tert-butoxy-2-(1-(4-chlorophenyl)-7-(3-(4-fluorophenyl)-3-hydroxybut-1-ynyl)-3-methylnaphthalen-2-yl)acetic acid] the figure was 120 nM; with `Cc1nc(C)c(C(C)(O)C#Cc2ccc3cc(C)c([C@H](OC(C)(C)C)C(=O)O)c(-c4ccc(Cl)cc4)c3c2)s1` (stereo partly drawn) [Example 13, (2S)-2-tert-Butoxy-2-(1-(4-chlorophenyl)-7-(3-(2,4-dimethylthiazol-5-yl)-3-hydroxybut-1-ynyl)-3-methylnaphthalen-2-yl)acetic acid], 65 nM; with `Cc1ccc2c(-c3ccc4c5c(ccnc35)CCO4)c([C@H](OC(C)(C)C)C(=O)O)c(C)cc2c1` (atropisomer, axis not shown) [Example 16, (S)-2-tert-butoxy-2-((S)-1-(2,3-dihydropyrano[4,3,2-de]quinolin-7-yl)-3,6-dimethylnaphthalen-2-yl)acetic acid], 1740 nM.
Still for that read-out and setting: with `CCCCC(C)(C)O[C@H](C(=O)O)c1c(C)cc2ccccc2c1-c1ccc2c3c(ccnc13)CCO2` (atropisomer, axis not shown) [Example 30, (S)-2-((S)-1-(2,3-Dihydropyrano[4,3,2-de]quinolin-7-yl)-3-methylnaphthalen-2-yl)-2-(2-methylhexan-2-yloxy)acetic acid] the figure was 84 nM.
Still for that read-out and setting: with `Cc1cc2cc(C#CC3CC3)ccc2c(-c2ccc3c4c(ccnc24)CCO3)c1[C@H](OC(C)(C)C)C(=O)O` (atropisomer, axis not shown) [Example 21, (S)-2-tert-Butoxy-2-((R)-6-(cyclopropylethynyl)-1-(2,3-dihydropyrano[4,3,2-de]quinolin-7-yl)-3-methylnaphthalen-2-yl)acetic acid] the figure was 169 nM; with `Cc1ccc2cc(C)c([C@H](OC(C)(C)C)C(=O)O)c(-c3ccc4c5c(ccnc35)CCO4)c2c1` (atropisomer, axis not shown) [Example 15, (S)-2-tert-Butoxy-2-((R)-1-(2,3-dihydropyrano[4,3,2-de]quinolin-7-yl)-3,7-dimethylnaphthalen-2-yl)acetic acid], 34 nM.

The same assay, now with this note: Human immunodeficiency virus 1, IIIB, MT4, 120 h, Table II; MT-4 cells infected with HIV-IIIb, 5 days incubation, CellTiter-Glo readout.
For the compound `COc1c(C)c([C@H](OC(C)(C)C)C(=O)O)c(-c2ccc3c4c(ccnc24)CCO3)c2ccccc12` (atropisomer, axis not shown) [Example 82], the EC50 was 43.2 nM.
The same measure, in the same setting: with `Cc1cc2cc(-c3cnc(N)nc3)ccc2c(-c2ccc3c4c(ccnc24)CCO3)c1[C@H](OC(C)(C)C)C(=O)O` (atropisomer, axis not shown) [Example 55] the figure was 7.53 nM; with `Cc1cc2cc(-c3cnc(N(C)C)nc3)ccc2c(-c2ccc3c4c(ccnc24)CCO3)c1[C@H](OC(C)(C)C)C(=O)O` (atropisomer, axis not shown) [Example 48], 10.4 nM.
Still for that read-out and setting: with `Cc1cc2ccccc2c(-c2ccc3c4c(ccnc24)CCO3)c1C(OC(C)(C)CCl)C(=O)O` (stereo not drawn) [Example 100] the figure was 161 nM.
Still for that read-out and setting: with `Cc1cc2c3c(ccc2c(-c2ccc4c5c(ccnc25)CCO4)c1[C@H](OC(C)(C)C)C(=O)O)COC3` (atropisomer, axis not shown) [Example 67] the figure was 52.3 nM; with `Cc1cc2c(C(F)F)c(C)ccc2c(-c2ccc3c4c(ccnc24)CCO3)c1[C@H](OC(C)(C)C)C(=O)O` (atropisomer, axis not shown) [Example 70], 11.6 nM; with `CC(C)(C)O[C@H](C(=O)O)c1c(-c2ccc3c4c(ccnc24)CCO3)c2ccccc2c2[nH]ncc12` (atropisomer, axis not shown) [Example 90], 366 nM.
The compound `Cc1cc2cc(-c3cnc(N4CCCC4)nc3)ccc2c(-c2ccc3c4c(ccnc24)CCO3)c1[C@H](OC(C)(C)C)C(=O)O` (atropisomer, axis not shown) [Example 51] gave a half-maximal effective concentration (EC50) of 20.5 nM.
The same measure, in the same setting: with `Cc1ccc2c(-c3ccc4c5c(ccnc35)CCO4)c([C@@H](OC(C)(C)CF)C(=O)O)c(C)cc2c1` (atropisomer, axis not shown) [Example 63] the figure was 1680 nM; with `Cc1cc2ccccc2c(-c2ccc3c4c(ccnc24)CCO3)c1[C@@H](OC(C)(CF)CF)C(=O)O` (atropisomer, axis not shown) [Example 104], 2950 nM.
In turn, `Cc1cc2ccccc2c(-c2ccc3c4c(ccnc24)CCO3)c1[C@H](OC(C)(C)CF)C(=O)O` (atropisomer, axis not shown) [Example 102] had an EC50 of 18 nM.
Same read-out and setting: with `COc1ncc(-c2ccc3c(-c4ccc5c6c(ccnc46)CCO5)c([C@H](OC(C)(C)C)C(=O)O)c(C)cc3c2)c(O)n1` (atropisomer, axis not shown) [Example 47] the figure was 59.2 nM; with `Cc1cc2ccccc2c(-c2ccc3c4c(ccnc24)CCO3)c1[C@H](OC(C)(CF)CF)C(=O)O` (atropisomer, axis not shown) [Example 105], 15.4 nM.
Still for that read-out and setting: with `Cc1cc2c(N)cccc2c(-c2ccc3c4c(ccnc24)CCO3)c1[C@H](OC(C)(C)C)C(=O)O` (atropisomer, axis not shown) [Example 91] the figure was 11.7 nM.

The assay is the same for the next values; noted with them: Table I; MT-4 cells infected with HIV-IIIb, 5 days incubation, CellTiter-Glo readout.
As to `COCC(C)(C)O[C@H](C(=O)O)c1c(C)cc2ccccc2c1-c1ccc2c3c(ccnc13)CCO2` (atropisomer, axis not shown) [Example 25, (2S)-2-((R)-1-(2,3-dihydropyrano[4,3,2-de]quinolin-7-yl)-3-methylnaphthalen-2-yl)-2-(1-methoxy-2-methylpropan-2-yloxy)acetic acid], the half-maximal effective concentration (EC50) amounted to 37 nM.

The same assay, now with this note: Table II; MT-4 cells infected with HIV-IIIb, 5 days incubation, CellTiter-Glo readout.
On to `Cc1cc2c(C)c(-c3cnc(N(C)C)nc3)ccc2c(-c2ccc3c4c(ccnc24)CCO3)c1[C@H](OC(C)(C)C)C(=O)O` (atropisomer, axis not shown) [Example 73], for which the EC50 worked out at 8.95 nM.
The same measure, in the same setting: with `Cc1cc2c(C)c(-c3cnc(N)nc3)ccc2c(-c2ccc3c4c(ccnc24)CCO3)c1[C@H](OC(C)(C)C)C(=O)O` (atropisomer, axis not shown) [Example 75] the figure was 6.95 nM; with `CC(C)(C)O[C@H](C(=O)O)c1c2c(c3ccccc3c1-c1ccc3c4c(ccnc14)CCO3)CCC2` (atropisomer, axis not shown) [Example 33], 1660 nM.
The same measure, in the same setting: with `Cc1cc2ccccc2c(-c2ccc3c4c(ccnc24)CCO3)c1[C@H](OC(C)(C)CCF)C(=O)O` (atropisomer, axis not shown) [Example 96] the figure was 6420 nM.
As to `Cc1cc2cc(-c3ccc(-c4cncnc4)cc3)ccc2c(-c2ccc3c4c(ccnc24)CCO3)c1[C@H](OC(C)(C)C)C(=O)O` (atropisomer, axis not shown) [Example 41], the EC50 was found to be 40.9 nM.
Compound `Cc1c([C@H](OC(C)(C)C)C(=O)O)c(-c2ccc3c4c(ccnc24)CCO3)c2ccccc2c1C(F)F` (atropisomer, axis not shown) [Example 87] came in with a half-maximal effective concentration (EC50) of 1310 nM.
Same read-out and setting: with `Cc1cc2cc(C#Cc3cncnc3)ccc2c(-c2ccc3c4c(ccnc24)CCO3)c1[C@H](OC(C)(C)C)C(=O)O` (atropisomer, axis not shown) [Example 43] the figure was 121 nM; with `Cc1cc2cc(-c3cnc(-c4cncnc4)nc3)ccc2c(-c2ccc3c4c(ccnc24)CCO3)c1[C@H](OC(C)(C)C)C(=O)O` (atropisomer, axis not shown) [Example 38], 45.2 nM; with `Cc1cc2ccccc2c(-c2ccc3c4c(ccnc24)CCO3)c1[C@H](OC(C)(C)CCF)C(=O)O` (atropisomer, axis not shown) [Example 97], 43 nM.
Same read-out and setting: with `Cc1cc2cc(C#Cc3cncnc3)ccc2c(-c2ccc3c4c(ccnc24)CCO3)c1[C@H](OC(C)(C)C)C(=O)O` (atropisomer, axis not shown) [Example 42] the figure was 53200 nM; with `Cc1cc2cc(-c3cncnc3C)ccc2c(-c2ccc3c4c(ccnc24)CCO3)c1[C@H](OC(C)(C)C)C(=O)O` (atropisomer, axis not shown) [Example 57], 10000 nM; with `Cc1cc2cc(-c3c(C)ncnc3C)ccc2c(-c2ccc3c4c(ccnc24)CCO3)c1[C@H](OC(C)(C)C)C(=O)O` (atropisomer, axis not shown) [Example 58], 7760 nM.
The same measure, in the same setting: with `Cc1cc2cccc(F)c2c(-c2ccc3c4c(ccnc24)CCO3)c1[C@H](OC(C)(C)C)C(=O)O` (atropisomer, axis not shown) [Example 68] the figure was 2940 nM; with `Cc1c([C@H](OC(C)(C)C)C(=O)O)c(-c2ccc3c4c(ccnc24)CCO3)c2ccccc2c1C(F)F` (atropisomer, axis not shown) [Example 86], 131 nM.
